Laboratory results from patent US5703085A, “Xanthine derivatives” (Kyowa Hakko Kogyo Co., Ltd., priority 1994, dated 1997).
Like-named read-outs stand apart in the source and are kept apart here.

Key:
[1] = target: T1, A2 Receptor (Rattus norvegicus, UniProt P30543); assay: Adenosine A2 receptor binding test (inhibition of 3H-CGS 21680 binding); details: rat corpus striatum, 3H-CGS 21680 4.0 nM
T1 construct: from tissue; host or cells: rat corpus striatum (membrane suspension)
Protocol: Adenosine Receptor Antagonistic Activity (Adenosine A2 Receptor Binding Test)
The test was conducted according to the method of Bruns et al. [Mol. Pharmacol., 29, 331 (1986)] with slight modification.
Corpus striatum of a rat was suspended in ice-cooled 50 mM Tris (hydroxymethyl) aminomethane hydrochloride (Tris HCl) buffer (pH 7.7) by using Polytron homogenizer (manufactured by Kinematica Co.). The suspension was centrifuged (50,000×g, 10 minutes), and the precipitate was suspended again in the same amount of 50 mM Tris HCl buffer. The suspension was centrifuged under the same conditions, and the final precipitate was suspended in 50 mM Tris HCl buffer [containing 10 mM magnesium chloride and 0.02 unit/mg tissue of adenosine deaminase (manufactured by Sigma Co.)] to give a tissue concentration of 5 mg (wet weight)/ml.
To 1 ml of the tissue suspension thus prepared were added 50 μl of tritium labeled CGS 21680 {^3 H-2-[p-(2-carboxyethyl) phenethylamino]-5'-(N-ethylcarboxamide)-adenosine: 40 Ci/mmol; manufactured by New England Nuclear Co. [J. Pharmacol. Exp. Ther., 251, 888 (1989)]} (final concentration: 4.0 nM) and 50 μl of a test compound. The resulting mixture was allowed to stand at 25° C. for 120 minutes and then rapidly filtered by suction through a glass fiber filter (GF/C; manufactured by Whatman Co.). The filter was immediately washed three times with 5 ml each of ice-cooled 50 mM Tris HCl buffer, and transferred to a vial, and a scintillator (EX-H; manufactured by Wako Pure Chemical Industries, Ltd.) was added thereto. The radioactivity on the filter was determined with a liquid scintillation counter (manufactured by Packard Instrument Co.).
The inhibition rate of the test compound against the binding of A2 receptors (^3 H-CGS 21680 binding) was calculated by the following equation: [formula] [Notes]B: Amount of the binding in the presence of the test compound.
T: Amount of the total binding.
N: Amount of the nonspecific binding.
Amount of the total binding means the amount of radioactivity of ^3 H-CGS 21680 bound in the absence of the test compound. Amount of the nonspecific binding means the amount of radioactivity of ^3 H-CGS 21680 bound in the presence of 100 μM cyclopentyladenosine (CPA; manufactured by Sigma Co.). Amount of the binding in the presence of the test compound means the amount of radioactivity of ^3 H-CGS 21680 bound in the presence of the test compound at various levels of concentrations.

[2] = Effect on haloperidol-induced catalepsy; type: in vivo, male ddY mice; details: 10 mg/kg po; for Total Score (catalepsy): 1 h after compound; for inhibition in vivo at 10 mg/kg: Mus musculus, 1 h, decrease in total score vs control group, read-out: Remission Rate (%)
Protocol: Effect on Haloperidol-Induced Catalepsy
Parkinson's disease is a clinical syndrome caused by degeneration and cell death of nigrostriatal dopaminergic neurons. Administration of haloperidol (dopamine D1 /D2 antagonist) induces catalepsy resulting from the blockade of postsynaptic dopamine D2 receptors.
The experiment was carried out using several groups of 5-week-old male ddY mice (weighing 22 to 24 g, Japan SLC), each group consisting of 5 or 10 mice. Haloperidol (manufactured by Janssen Pharmaceutica) was suspended in 0.3% CMC and imtraperitoneally administered to each mouse at a dose of 1.0 mg/kg. A test compound was suspended in injectable distilled water (manufactured by Otsuka Pharmaceutical Co., Ltd.) after adding Tween 80 [polyoxyethylene (20) sorbitan monooleate]. L-DOPA (manufactured by Kyowa Hakko Kogyo Co., Ltd.) and benserazide hydrochloride (manufactured by Kyowa Hakko Kogyo Co., Ltd.) were suspended in 0.3% CMC. One hour after the intraperitoneal administration of haloperidol, the suspension containing the test compound or the suspension containing no test compound [injectable distilled water (manufactured by Otsuka Pharmaceutical Co., Ltd.) containing Tween 80; control] were orally administered to the separate groups of the mice (0.1 ml per 10 g of body weight). One hour after the administration of the test compound, the forelimbs of each mouse and subsequently the hindlimbs of the same mouse were placed on a 4.5 cm-high, 1.0 cm-wide bar and catalepsy was estimated. All of the test compounds were orally administered at a dose of 10 mg/kg, and L-DOPA (100 mg/kg) and benserazide (25 mg/kg) were intraperitoneally administered together as a control. The catalepsy score and the standard of judgment are shown below. […]
Score Duration of the category
0: forelimbs less than 5 seconds
hindlimbs less than 5 seconds
1: forelimbs from 5 (inclusive)
to 10 (exclusive) seconds
2: forelimbs 10 seconds or more
3: (1) forelimbs from 5 (inclusive)
hindlimbs from 5 (inclusive)
or (2) forelimbs less than 5 seconds
hindlimbs 5 seconds or more
4: (1) forelimbs 10 seconds or more
or (2) forelimbs from 5 (inclusive)
hindlimbs 10 seconds or more
5: forelimbs 10 seconds or more
The effect of the compounds was evaluated by the total of the catalepsy scores of 5 or 10 mice in each group (25 or 50 points at the maximum). The groups wherein the total score was not more than 20 or 40 points were estimated to be effective. The number of the animals showing remission against catalepsy is the number of the mice for which the catalepsy score was not more than 4 points in 5 or 10 mice.

[3] = Effect on clonidine-induced aggressive behavior; type: in vivo, male ddY mice; details: po, clonidine 20 mg/kg ip; for Number of the Biting Attacks (mean ± S.E.M.), Test Compound-Treated Group: 30 min count
Protocol: Effect on Clonidine-Induced Aggressive Behavior
The enhancement effect of the test compounds on the aggressive behavior induced by intraperitoneal administration of clonidine [Eur. J. Pharmacol., 29, 374 (1968)] was investigated.
The experiment was performed using several groups of male ddY mice weighing 20 to 25 g (Japan SLC), each group consisting of two mice. A test compound was suspended in injectable distilled water (manufactured by Otsuka Pharmaceutical Co., Ltd.) after adding Tween 80. Clonidine hydrochloride (manufactured by Sigma Co.) was dissolved in physiological saline solution (manufactured by Otsuka Pharmaceutical Co., Ltd.). The suspension containing the test compound and the suspension containing no test compound (control) were orally administered to the separate groups of the mice (0.1 ml per 10 g of body weight). Sixty minutes after the oral administration of the test compound, clonidine hydrochloride (20 mg/kg) was intraperitoneally administered. The number of biting attacks during the 30 minutes immediately after the clonidine treatment was counted. The effect of the compounds was evaluated by comparing the number of biting attacks of the test compound-administered groups with that of control groups (significance test: Student' t-test).

[4] = 5 mice (max 25 points; control 25)
[5] = out of 5 mice (score not more than 4)

T1 sequence (P30543 whole entry): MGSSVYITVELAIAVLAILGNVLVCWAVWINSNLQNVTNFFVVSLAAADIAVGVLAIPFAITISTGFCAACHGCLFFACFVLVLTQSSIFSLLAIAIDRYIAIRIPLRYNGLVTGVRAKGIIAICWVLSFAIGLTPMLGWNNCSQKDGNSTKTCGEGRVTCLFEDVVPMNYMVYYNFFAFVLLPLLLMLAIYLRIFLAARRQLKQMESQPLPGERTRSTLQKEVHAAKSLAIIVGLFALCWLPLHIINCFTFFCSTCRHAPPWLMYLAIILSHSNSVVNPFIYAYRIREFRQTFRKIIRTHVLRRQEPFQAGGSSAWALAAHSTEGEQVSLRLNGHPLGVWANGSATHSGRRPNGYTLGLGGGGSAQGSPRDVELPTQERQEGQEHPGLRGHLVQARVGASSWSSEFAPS

SMILES | A2 Receptor Inhibition Rate (%) ([1]; 10^-6 M) | A2 Receptor Inhibition Rate (%) ([1]; 10^-7 M) | Total Score (catalepsy) [2, 4] | Number of Animals Showing Remission [2, 5] | inhibition in vivo at 10 mg/kg ([2]; 5 mice) [%] | Ratio of Attacks: Test Compd.-Treated Group/Control Group ([3]; 10 mg/kg) | Number of the Biting Attacks (mean ± S.E.M.), Test Compound-Treated Group ([3]; 10 mg/kg) | Total Score (catalepsy) ([2]; 10 mice (max 50 points)) | Number of Animals Showing Remission ([2]; out of 10 mice (score not more than 4)) | inhibition in vivo at 10 mg/kg ([2]; 10 mice) [%] | Ratio of Attacks: Test Compd.-Treated Group/Control Group ([3]; 2.5 mg/kg) | Number of the Biting Attacks (mean ± S.E.M.), Test Compound-Treated Group ([3]; 2.5 mg/kg) | Ratio of Attacks: Test Compd.-Treated Group/Control Group ([3]; 0.63 mg/kg) | Number of the Biting Attacks (mean ± S.E.M.), Test Compound-Treated Group ([3]; 0.63 mg/kg)
CCCn1c(=O)c2c(nc(/C=C/c3ccc(OC(=O)c4ccccc4)c(OC)c3)n2C)n(CCC)c1=O [Compound 6, (E)-8-(4-Benzoyloxy-3-methoxystyryl)-7-methyl-1,3-dipropylxanthine] | 96 | 81 | 9 | 5 | 64 | 16.0 | 36.8 ± 10.8 |  |  |  |  |  |  | 
CCC(=O)Oc1ccc(/C=C/c2nc3c(c(=O)n(CC)c(=O)n3CC)n2C)cc1OC [Compound 12, (E)-1,3-Diethyl-8-(3-methoxy-4-propionyloxystyryl)-7-methylxanthine] | 96 | 86 |  |  |  |  |  | 10 | 10 | 80 | 20.3 | 38.5 ± 8.4 |  | 
CCCn1c(=O)c2c(nc(/C=C/c3ccc(OC(C)=O)c(OC)c3)n2C)n(CCC)c1=O [Compound 4, (E)-8-(4-Acetoxy-3-methoxystyryl)-7-methyl-1,3-dipropylxanthine] | 98 | 94 | 3 | 5 | 88 |  |  |  |  |  | 11.0 | 47.4 ± 11.1 |  | 
CCn1c(=O)c2c(nc(/C=C/c3ccc(OC(C)=O)c(OC)c3)n2C)n(CC)c1=O [Compound 5, (E)-8-(4-Acetoxy-3-methoxystyryl)-1,3-diethyl-7-methylxanthine] | 100 | 91 | 2 | 5 | 92 |  |  |  |  |  |  |  | 4.9 | 19.1 ± 6.6
